In publication PMC11694611, “α‐Triazolylboronic Acids: A Novel Scaffold to Target FLT3 in AML” (Chemmedchem, 2024):
Like-named read-outs stand apart in the source and are kept apart here.

How the values were obtained:
[1] = target: T1, recombinant His-tagged FLT3 kinase domain (aa 569–992) (Homo sapiens, UniProt P36888); test: ELISA-based in vitro FLT3 kinase assay; assay type: biochemical; conditions: recombinant FLT3, 300 μM ATP
T1 construct: FLT3 kinase domain (aa 569–992); His; made in house; host or cells: Sf9 cells
T1 sequence (P36888 569-992): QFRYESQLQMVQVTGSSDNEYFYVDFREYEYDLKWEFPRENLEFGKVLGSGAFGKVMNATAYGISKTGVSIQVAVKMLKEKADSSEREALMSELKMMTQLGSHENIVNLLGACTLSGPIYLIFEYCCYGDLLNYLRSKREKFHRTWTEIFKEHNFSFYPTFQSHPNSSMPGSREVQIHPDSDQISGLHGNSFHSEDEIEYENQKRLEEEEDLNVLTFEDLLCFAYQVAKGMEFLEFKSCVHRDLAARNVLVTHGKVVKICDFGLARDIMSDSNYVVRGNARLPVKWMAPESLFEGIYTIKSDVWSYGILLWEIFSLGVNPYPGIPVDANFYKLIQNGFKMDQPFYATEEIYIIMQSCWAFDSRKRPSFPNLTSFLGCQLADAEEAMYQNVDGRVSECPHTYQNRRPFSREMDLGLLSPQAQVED
Method: (§1) In vitro kinase assays and cell viability assays were performed as described (Mologni et al., 2022).[50] Briefly, recombinant His‐tagged FLT3 kinase domain (aa 569–992) was expressed in Sf9 cells and purified by nickel ion affinity chromatography. The purified enzyme was employed in an ELISA‐based kinase assay with 300 μM ATP and a Tyr‐phosphorylatable substrate peptide, using an anti‐phosphotyrosine antibody for detection (PY20; Santa Cruz Biotech). Cell viability was determined by MTS assay using the CellTiter 96® AQueous One Solution Cell Proliferation Assay kit (Promega) according to manufacturer's instructions. Dose‐response curves were calculated by non‐linear regression (log[inhibitor] vs normalized response) using GraphPad Prism software.

[2] = tested on: MV-4-11 cells (FLT3-ITD); test: Cell viability by MTS assay, MV-4-11 cells; assay type: cell-based; conditions: Homo sapiens, MV4-11, read-out: MV-4-11 (IC50, mean±SEM)
Method: Cellular assays were carried out on MV‐4‐11 cells, driven by the FLT3‐ITD mutation.
as §1, with “The” for “In vitro kinase assays and cell viability assays were performed as described (Mologni et al., 2022).[50] Briefly, recombinant His‐tagged FLT3 kinase domain (aa 569–992) was expressed in Sf9 cells and purified by nickel ion affinity chromatography. The”

[3] = tested on: FLT3-wild type HL60 cells; test: Cytotoxicity by MTS assay, control cell line HL60; assay type: cell-based; conditions: for IC50: Homo sapiens, HL-60, read-out: HL60 (IC50, mean±SEM)
Method: Compounds 4 a, 4 d, 4 e, 4 g and 4 q were among the best inhibitors in enzymatic assays and confirmed their activity also in cellular tests on FLT3‐driven MV‐4‐11 and on MOLM‐14 cell lines. To confirm their cellular mechanism of action, we assayed their cytotoxicity against FLT3‐wild type HL60 cells.
as §1

[4] = tested on: MOLM-14 cells (FLT3-ITD); test: Cell viability by MTS assay, MOLM-14 cells; assay type: cell-based; conditions: Homo sapiens, read-out: MOLM-14 (IC50, mean±SEM)
[5] = cited from earlier work
[6] = Table 1, read-out: FLT3 Kinase Activity (IC50, mean±SEM)
[7] = Table 2, FLT3-ITD cell line, MTS viability
[8] = Table 3, FLT3-wild type control cell line
[9] = Table 2, read-out: FLT3 Kinase (IC50, mean±SEM)
[10] = Table 4, control analogues lacking boronic group

Row | Structure (SMILES) | IC50 [1, 6] | IC50 [2, 7] | IC50 [1, 9] | also measured
1 | O=C(Cc1ccc(O)c(O)c1)NCB(O)O [1 g] | > 100 µM |  |  | 
2 | O=S(=O)(Cc1ccccc1)NCB(O)O [3 a] | > 100 µM |  |  | 
3 | NS(=O)(=O)c1cccc(-c2cn(CB(O)O)nn2)c1 [4 f] | > 100 µM | > 100 µM |  | 
4 | CC(=O)NC(Cn1cc(C(C)(C)O)nn1)B(O)O (stereo not shown) [2 e] | > 100 µM |  |  | 
5 | O=C(Nc1ccccc1)NC(Cc1cccc(C(=O)O)c1)B(O)O (stereo not shown) [1 a] | > 100 µM |  |  | 
6 | CCCCn1cc(-c2ccc(N)cc2)nn1 [6 e, 4‐(1‐butyl‐1H‐1,2,3‐triazol‐4‐yl)aniline] |  |  |  | IC50 [3, 10]: > 100 µM; IC50 [2, 10]: > 100 µM; IC50 [4, 10]: > 100 µM
7 | Nc1nnc(SCC(=O)NC(Cn2cc(C(=O)O)nn2)B(O)O)s1 (stereo not shown) [2 c] | > 100 µM |  |  | 
8 | O=C(Cc1cccs1)NC(B(O)O)c1ccccc1 (stereo not shown) [1 d] | > 100 µM |  |  | 
9 | Cc1ccc(C(=O)Nc2ccc(CN3CCN(C)CC3)c(C(F)(F)F)c2)cc1C#Cc1cnc2cccnn12 [ponatinib, reference compound] |  | 0.007 ± 0.002 µM |  | IC50 [4, 7]: 0.001 ± 0.0001 µM
10 | O=C(CSc1ccncc1)NCB(O)O [1 f] | > 100 µM |  |  | 
11 | [Cl-].[Na+] [NaCl] |  |  |  | LD50 [5]: 3000 mg/kg
12 | Nc1cccc(-c2cn(CB(O)O)nn2)c1 [4 e] | 6.7 ± 1.7 µM | 14 ± 3 µM |  | IC50 [3, 8]: > 100 µM; IC50 [4, 7]: 11 ± 1 µM
13 | CC(NS(=O)(=O)Cc1ccccc1)B(O)O (stereo not shown) [3 c] | > 100 µM |  |  | 
14 | Cc1onc(-c2ccccc2Cl)c1C(=O)NCB(O)O [1 c] | > 100 µM |  |  | 
15 | OB(O)Cn1cc(-c2cnccn2)nn1 [4 h] |  | > 100 µM | > 100 µM | 
16 | CC(=O)NC(Cn1cc(-c2ccccc2)nn1)B(O)O (stereo not shown) [2 d] | > 100 µM |  |  | 
17 | OB(O)Cn1cc(-c2cccc(Cl)c2)nn1 [4 g] | 18 ± 5 µM | 2.7 ± 0.9 µM |  | IC50 [3, 8]: 15 ± 1 µM; HL60 (IC50, mean±SEM) [3, 8]: moderate inhibition of HL60; IC50 [4, 7]: 0.68 ± 0.08 µM
18 | O=C(O)c1cccc(-c2cn(CB(O)O)nn2)c1 [4 c] | > 100 µM | > 100 µM |  | 
19 | NC(=O)c1cn(CC(NC(=O)Cc2cccs2)B(O)O)nn1 (stereo not shown) [2 b] | > 100 µM |  |  | 
20 | OB(O)Cn1cc(-c2cccnc2)nn1 [4 i] |  | > 100 µM | > 100 µM | 
21 | Nc1ccc(-c2cn(CC(=O)O)nn2)cc1 [5 e, 2‐(4‐(4‐aminophenyl)‐1H‐1,2,3‐triazol‐1‐yl)acetic acid] |  |  |  | IC50 [3, 10]: > 100 µM; IC50 [2, 10]: > 100 µM; IC50 [4, 10]: > 100 µM
22 | O=C(Cc1ccc(-c2nn[nH]n2)cc1)NCB(O)O [1 b] | > 100 µM |  |  | 
23 | O=C(NCB(O)O)c1ccc(-c2nnn[nH]2)cc1 [1 e] | > 100 µM |  |  | 
24 | Cc1cccc(-c2cn(CB(O)O)nn2)c1 [4 d] | 25 ± 2 µM | 11 ± 1 µM |  | IC50 [3, 8]: 32 ± 4 µM; HL60 (IC50, mean±SEM) [3, 8]: moderate inhibition of HL60; IC50 [4, 7]: 3 ± 0.5 µM
25 | CC(C)C(NS(=O)(=O)Cc1ccccc1)B(O)O (stereo not shown) [3 b] | > 100 µM |  |  | 
26 | Nc1cccc(-c2cn(CC(NC(=O)Cc3ccccc3)B(O)O)nn2)c1 (stereo not shown) [2 a] | > 100 µM |  |  | 
27 | Cc1ccc(S(=O)(=O)Nc2cccc(-c3cn(CB(O)O)nn3)c2)cc1 [4 a] | 18 ± 1 µM | 14 ± 0.2 µM |  | IC50 [3, 8]: > 100 µM; IC50 [4, 7]: 5.8 ± 0.7 µM
28 | NC(=O)c1cccc(-c2cn(CB(O)O)nn2)c1 [4 b] | > 100 µM | > 100 µM |  | 

More lines, main results first:

Row | IC50 [1, 6] | IC50 [2, 7] | IC50 [1, 9] | Structure (SMILES) | also measured
29 |  | 10 ± 1 µM | 18 ± 3 µM | Cc1ccc(S(=O)(=O)Nc2cccc(OCc3cn(CB(O)O)nn3)c2)cc1 [4 q] | IC50 [3, 8]: > 100 µM; IC50 [4, 7]: 4.3 ± 0.5 µM
30 |  | > 100 µM | > 100 µM | COC(=O)c1ccc(CS(=O)(=O)NCc2cn(CB(O)O)nn2)cc1 [4 m] | 
31 |  | > 100 µM | 42 ± 5 µM | CS(=O)(=O)NCc1cn(CB(O)O)nn1 [4 p] | 
32 |  | 1.1 ± 0.1 µM | > 100 µM | OB(O)Cn1cc(COc2ccccc2)nn1 [4 r] | IC50 [4, 7]: 0.16 ± 0.01 µM; FLT3 Kinase (IC50, mean±SEM) ([1]; Table 2): do not inhibit FLT3
33 |  | > 100 µM | > 100 µM | O=C(NCc1cn(CB(O)O)nn1)C(F)(F)F [4 v] | FLT3 Kinase (IC50, mean±SEM) ([1]; Table 2): lose enzymatic activity
34 |  | > 100 µM | 25 ± 5 µM | O=S(=O)(NCc1cn(CB(O)O)nn1)c1cccs1 [4 l] | 
35 |  | 1.4 ± 0.3 µM | > 100 µM | O=C(OCc1cn(CB(O)O)nn1)c1ccccc1 [4 w] | IC50 [4, 7]: 0.35 ± 0.01 µM; FLT3 Kinase (IC50, mean±SEM) ([1]; Table 2): do not inhibit FLT3
36 |  | 100 µM | 76 ± 13 µM | OB(O)Cn1cc(-c2cccs2)nn1 [4 j] | IC50 [4, 7]: 11 ± 2 µM
37 |  | > 100 µM | 3.2 ± 0.4 µM | O=C(NCc1cn(CB(O)O)nn1)c1ccccc1 [4 t] | 
38 |  | > 100 µM | 5.8 ± 0.9 µM | O=S(=O)(CC(F)(F)F)NCc1cn(CB(O)O)nn1 [4 k] | 
39 |  | > 100 µM | > 100 µM | O=C(O)c1cccc(CS(=O)(=O)NCc2cn(CB(O)O)nn2)c1 [4 n] | 
40 |  | > 100 µM | 65 ± 11 µM | COC(=O)c1cccc(CS(=O)(=O)NCc2cn(CB(O)O)nn2)c1 [4 o] | 
41 |  | 7.6 ± 3.9 µM | > 100 µM | OB(O)Cn1cc(CNc2ccccc2)nn1 [4 u] | IC50 [4, 7]: 8.7 ± 1.4 µM; FLT3 Kinase (IC50, mean±SEM) ([1]; Table 2): lose enzymatic activity
